# Laboratory results from PubChem BioAssay AID1918931 (Molecular Pharmacology Branch, DTP, NCI, 2023).
# Test system: 138582-337-R-J1-PDC complex spheroid viability
# Assay: Anticancer human tumor 138582-337-R-J1-PDC patient-derived Merkel cell tumor cell line growth inhibition
# Conditions: for IC50: curve of first compound; for viability, T/C: stronger effect = lower value
# Outline: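 Complex spheroids of tumor cells with HUVEC and human MSCs, exposed to iadademstat combined with other agents. Each agent tested in half-log steps from near clinical Cmax (else 10 microM top), DMSO ≤0.25%.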
# [1] = second compound 0.1 µM, first compound 0.0316 µM
# [2] = second compound 0.1 µM, first compound 0.1 µM
# [3] = second compound 0.1 µM, first compound 0.316 µM
# [4] = second compound 0.1 µM, first compound 1 µM
# [5] = second compound 0.316 µM, first compound 0.0316 µM
# [6] = second compound 0.316 µM, first compound 0.1 µM
# [7] = second compound 0.316 µM, first compound 0.316 µM
# [8] = second compound 0.316 µM, first compound 1 µM
# [9] = second compound 1 µM, first compound 0.0316 µM
# [10] = second compound 1 µM, first compound 0.1 µM
# [11] = second compound 1 µM, first compound 0.316 µM
# [12] = second compound 1 µM, first compound 1 µM
# [13] = second compound 3.16 µM, first compound 0.0316 µM
# [14] = second compound 3.16 µM, first compound 0.1 µM
# [15] = second compound 3.16 µM, first compound 0.316 µM
# [16] = second compound 3.16 µM, first compound 1 µM
# [17] = second compound 10 µM, first compound 0.0316 µM
# [18] = second compound 10 µM, first compound 0.1 µM
# [19] = second compound 10 µM, first compound 0.316 µM
# [20] = second compound 10 µM, first compound 1 µM
# 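For viability, T/C in this document: 100% = DMSO vehicle control viability.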
SMILES,IC50 (second compound 0.1 µM) [µM],IC50 (second compound 0.316 µM) [µM],IC50 (second compound 1 µM) [µM],IC50 (second compound 3.16 µM) [µM],IC50 (second compound 10 µM) [µM],"viability, T/C [1] [%]","viability, T/C [2] [%]","viability, T/C [3] [%]","viability, T/C [4] [%]","viability, T/C [5] [%]","viability, T/C [6] [%]","viability, T/C [7] [%]","viability, T/C [8] [%]","viability, T/C [9] [%]","viability, T/C [10] [%]","viability, T/C [11] [%]","viability, T/C [12] [%]","viability, T/C [13] [%]","viability, T/C [14] [%]","viability, T/C [15] [%]",further results
CC1(C)CCC(CN2CCN(c3ccc(C(=O)NS(=O)(=O)c4ccc(NCC5CCOCC5)c([N+](=O)[O-])c4)c(Oc4cnc5[nH]ccc5c4)c3)CC2)=C(c2ccc(Cl)cc2)C1 + NC1CCC(NC2CC2c2ccccc2)CC1,> 10,> 10,> 10,> 10,> 10,85.4,95,92.5,91.8,95.9,104,99.1,109,99.8,89.9,82.3,79.9,90.7,100,108,"viability, T/C (second compound 0.1 µM, first compound 3.16 µM): 90.7%; viability, T/C (second compound 0.1 µM, first compound 10 µM): 126%; viability, T/C (second compound 0.316 µM, first compound 3.16 µM): 96.8%; viability, T/C (second compound 0.316 µM, first compound 10 µM): 88.7%; viability, T/C (second compound 1 µM, first compound 3.16 µM): 92.1%; viability, T/C (second compound 1 µM, first compound 10 µM): 81.3%; viability, T/C [16]: 106%; viability, T/C (second compound 3.16 µM, first compound 3.16 µM): 92.5%; viability, T/C (second compound 3.16 µM, first compound 10 µM): 77.3%; viability, T/C [17]: 80.2%; viability, T/C [18]: 88.1%; viability, T/C [19]: 70.8%; viability, T/C [20]: 78.7%; viability, T/C (second compound 10 µM, first compound 3.16 µM): 78.3%; viability, T/C (second compound 10 µM, first compound 10 µM): 63.5%"
COc1cc(Nc2ncc3c(n2)-c2ccc(Cl)cc2C(c2c(F)cccc2OC)=NC3)ccc1C(=O)O + NC1CCC(NC2CC2c2ccccc2)CC1,> 1,> 1,> 1,> 1,> 1,85.2,83.3,93,88.3,91.4,86.8,98.2,90.1,88.1,98,96.3,84.1,87.1,78.9,74.7,"viability, T/C (second compound 0.1 µM, first compound 0.00316 µM): 89.6%; viability, T/C (second compound 0.1 µM, first compound 0.01 µM): 97.8%; viability, T/C (second compound 0.316 µM, first compound 0.00316 µM): 99.2%; viability, T/C (second compound 0.316 µM, first compound 0.01 µM): 91.4%; viability, T/C (second compound 1 µM, first compound 0.00316 µM): 89.6%; viability, T/C (second compound 1 µM, first compound 0.01 µM): 93.3%; viability, T/C (second compound 3.16 µM, first compound 0.00316 µM): 98.2%; viability, T/C (second compound 3.16 µM, first compound 0.01 µM): 94.9%; viability, T/C [16]: 83%; viability, T/C (second compound 10 µM, first compound 0.00316 µM): 99.9%; viability, T/C (second compound 10 µM, first compound 0.01 µM): 98.6%; viability, T/C [17]: 90.5%; viability, T/C [18]: 76.9%; viability, T/C [19]: 87.2%; viability, T/C [20]: 74.2%"
